Experimental data reported in publication PMC6332545, “Biochemical properties and subcellular localization of six members of the HXK family in maize and its metabolic contribution to embryo germination” (BMC Plant Biology, 2019).

What was measured:
Assay type in all cases: biochemical
ZmHXK5Δ30 [1] = target: T1, ZmHXK5Δ30 (Zea mays, UniProt A0A1D6MAK9); assay: coupled G6PDH/NADP+ assay, A340; conditions: 2 mM MgCl2, pH 8.0
T1 construct: N-terminal mitochondrial anchor deleted (87 nucleotides after the start codon, first 30 residues); E. coli BL21-CodonPlus(DE3)-RIL
Text: coupled G6PDH/NADP+ assay, A340 on ZmHXK5Δ30

ZmHXK6Δ30 [2] = target: T2, ZmHXK6Δ30 (Zea mays, UniProt A0A1D6NCX2); assay: coupled G6PDH/NADP+ assay, A340; conditions: 2 mM MgCl2, pH 8.0
T2 construct: gene LOC103651223; N-terminal mitochondrial anchor deleted (87 nucleotides after the start codon, first 30 residues); E. coli BL21-CodonPlus(DE3)-RIL
Text: coupled G6PDH/NADP+ assay, A340 on ZmHXK6Δ30

ZmHXK4Δ30 [3] = target: T3, ZmHXK4Δ30 (Zea mays, UniProt K7VX77); assay: coupled G6PDH/NADP+ assay, A340; conditions: 2 mM MgCl2, pH 8.0
T3 construct: gene LOC542510; N-terminal mitochondrial anchor deleted (87 nucleotides after the start codon, first 30 residues); E. coli BL21-CodonPlus(DE3)-RIL
Text: coupled G6PDH/NADP+ assay, A340 on ZmHXK4Δ30

ZmHXK6Δ30 [4] = target: T2, ZmHXK6Δ30; assay: coupled pyruvate kinase/lactate dehydrogenase NADH assay, A340; conditions: read-out: Substrate / Mannose; 2 mM ATP, 2 mM MgCl2, pH 8.0
Text: coupled pyruvate kinase/lactate dehydrogenase NADH assay, A340 on ZmHXK6Δ30

ZmHXK4Δ30 [5] = target: T3, ZmHXK4Δ30; assay: as above; conditions: read-out: Substrate / Mannose; 2 mM ATP, 2 mM MgCl2, pH 8.0
Text: coupled pyruvate kinase/lactate dehydrogenase NADH assay, A340 on ZmHXK4Δ30

ZmHXK5Δ30 [6] = target: T1, ZmHXK5Δ30; assay: as above; conditions: read-out: Substrate / Mannose; 2 mM ATP, 2 mM MgCl2, pH 8.0
Text: coupled pyruvate kinase/lactate dehydrogenase NADH assay, A340 on ZmHXK5Δ30

ZmHXK8 = target: T4, ZmHXK8 (Zea mays, UniProt B4FB85); assay: coupled G6PDH/NADP+ assay, A340; conditions: 50 mM Glc, 2 mM ATP, 2 mM MgCl2, pH 8.0; product inhibition; PEP/pyruvate kinase listed in the reaction medium; read-out: ADP
T4 construct: full length, soluble; E. coli BL21-CodonPlus(DE3)-RIL
Text: coupled G6PDH/NADP+ assay, A340 on ZmHXK8

ZmHXK7 = target: T5, ZmHXK7 (Zea mays, UniProt C0HF79); assay: coupled G6PDH/NADP+ assay, A340; conditions: 5 mM Glc, 2 mM ATP, 2 mM MgCl2, pH 8.0; product inhibition; PEP/pyruvate kinase listed in the reaction medium; read-out: ADP
T5 construct: full length, soluble; E. coli BL21-CodonPlus(DE3)-RIL
Text: coupled G6PDH/NADP+ assay, A340 on ZmHXK7

[7] = read-out: Substrate / Glucose, 2 mM ATP
[8] = read-out: Substrate / ATP, 5 mM Glc
[9] = 5 mM Glc, 2 mM ATP, product inhibition, PEP/pyruvate kinase listed in the reaction medium, read-out: ADP

OC[C@H]1OC(O)[C@H](O)[C@@H](O)[C@@H]1O (some centres unmarked) [glucose] showed a Km (ZmHXK5Δ30 [1]; [7]) of 137 ± 20 µM, a Km (ZmHXK6Δ30 [2]; [7]) of 65.9 ± 15.2 µM and a Km (ZmHXK4Δ30 [3]; [7]) of 196 ± 32 µM.
Nc1ncnc2c1ncn2[C@@H]1O[C@H](COP(=O)(O)OP(=O)(O)OP(=O)(O)O)[C@@H](O)[C@H]1O [ATP] was tested, and the Km (ZmHXK5Δ30 [1]; [8]) was 136 ± 11.5 µM, the Km (ZmHXK6Δ30 [2]; [8]) was 199 ± 12.8 µM and the Km (ZmHXK4Δ30 [3]; [8]) was 135 ± 25.7 µM.
OC[C@H]1OC(O)[C@@H](O)[C@@H](O)[C@@H]1O (some centres unmarked) [mannose] gave a Km (ZmHXK6Δ30 [4]) of 48.9 ± 1.06 µM, a Km (ZmHXK4Δ30 [5]) of 139 ± 22.4 µM and a Km (ZmHXK5Δ30 [6]) of 120 ± 33.3 µM.
For Nc1ncnc2c1ncn2[C@@H]1O[C@H](COP(=O)(O)OP(=O)(O)O)[C@@H](O)[C@H]1O [ADP], the IC50 (ZmHXK5Δ30 [1]; [9]) was 690 ± 150 µM, the IC50 (ZmHXK6Δ30 [2]; [9]) was 720 ± 140 µM and the IC50 (ZmHXK4Δ30 [3]; [9]) was 710 ± 150 µM. It also gave an IC50 (ZmHXK8) of 3.12 ± 1.14 mM and an IC50 (ZmHXK7) of 6.47 ± 1.14 mM.
